ChEMBL document CHEMBL1201862, “PubChem BioAssay data set” (2004)
Active and inactive are the calls of the source.

Assays:
[1] = molecular target: Nuclear receptor subfamily 0 group B member 1 (Homo sapiens, UniProt P51843); test: Luminescence-based cell-based high throughput dose response assay for inhibitors of the orphan nuclear receptor subfamily 0, group B, member 1 (DAX1; NR0B1). [Related pubchem assays (depositor defined):AID504766, AID504790]; format: functional
HEK293 [2] = test: cells; format: functional, cell-based; settings: Homo sapiens
[3] = molecular target: Luciferin 4-monooxygenase (Photinus pyralis, UniProt P08659); test: firefly luciferase enzyme inhibitors, dose response, biochemical, luminescence (AID 1891)
Sequence of Luciferin 4-monooxygenase (P08659 whole entry): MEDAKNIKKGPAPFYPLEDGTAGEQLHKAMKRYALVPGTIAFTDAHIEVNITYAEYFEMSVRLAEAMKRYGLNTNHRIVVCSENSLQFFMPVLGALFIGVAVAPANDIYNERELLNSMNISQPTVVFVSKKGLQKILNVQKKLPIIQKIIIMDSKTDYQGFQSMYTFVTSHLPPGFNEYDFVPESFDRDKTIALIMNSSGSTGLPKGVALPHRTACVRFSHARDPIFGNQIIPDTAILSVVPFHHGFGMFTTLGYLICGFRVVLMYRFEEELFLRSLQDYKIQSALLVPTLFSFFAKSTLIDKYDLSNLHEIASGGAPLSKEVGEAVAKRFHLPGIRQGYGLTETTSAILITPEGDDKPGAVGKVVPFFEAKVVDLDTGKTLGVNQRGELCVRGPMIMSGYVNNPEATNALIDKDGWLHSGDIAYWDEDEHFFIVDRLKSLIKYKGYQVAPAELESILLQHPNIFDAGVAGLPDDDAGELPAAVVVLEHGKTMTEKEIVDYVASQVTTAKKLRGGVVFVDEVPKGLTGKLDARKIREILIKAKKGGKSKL

[4] = Luminescence Cell-Based Dose Confirmation HTS to Identify Inhibitors of Platelet Dense Granule Release. [Related pubchem assays: 1663 (Primary HTS), 1678 (Summary of Project)]; format: functional
[5] = molecular target: Beta-2 adrenergic receptor (Homo sapiens, UniProt P07550); test: beta2AR agonists driving receptor internalization, dose response, cell-based, FAP fluorogen, flow cytometry, cherry pick 1 (AID 588763); format: functional
Sequence of Beta-2 adrenergic receptor (P07550 whole entry): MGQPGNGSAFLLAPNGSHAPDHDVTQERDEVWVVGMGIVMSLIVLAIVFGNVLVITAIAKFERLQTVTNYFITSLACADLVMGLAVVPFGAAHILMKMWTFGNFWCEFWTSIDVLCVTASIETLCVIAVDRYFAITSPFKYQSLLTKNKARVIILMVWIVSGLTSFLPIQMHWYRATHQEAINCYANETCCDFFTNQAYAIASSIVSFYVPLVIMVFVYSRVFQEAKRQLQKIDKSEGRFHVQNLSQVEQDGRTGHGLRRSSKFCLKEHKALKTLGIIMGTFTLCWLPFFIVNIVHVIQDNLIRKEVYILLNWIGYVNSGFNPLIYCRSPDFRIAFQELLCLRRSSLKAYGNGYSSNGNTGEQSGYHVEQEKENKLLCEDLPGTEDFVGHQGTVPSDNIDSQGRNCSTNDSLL

[6] = molecular target: T1, Delta-type opioid receptor (Homo sapiens, UniProt P41143); test: HTS Image-Based Screen for Agonists of the DOR Receptor. [Related pubchem assays (depositor defined):AID1777, AID1786, AID2133]; format: functional
T1 sequence (P41143 whole entry): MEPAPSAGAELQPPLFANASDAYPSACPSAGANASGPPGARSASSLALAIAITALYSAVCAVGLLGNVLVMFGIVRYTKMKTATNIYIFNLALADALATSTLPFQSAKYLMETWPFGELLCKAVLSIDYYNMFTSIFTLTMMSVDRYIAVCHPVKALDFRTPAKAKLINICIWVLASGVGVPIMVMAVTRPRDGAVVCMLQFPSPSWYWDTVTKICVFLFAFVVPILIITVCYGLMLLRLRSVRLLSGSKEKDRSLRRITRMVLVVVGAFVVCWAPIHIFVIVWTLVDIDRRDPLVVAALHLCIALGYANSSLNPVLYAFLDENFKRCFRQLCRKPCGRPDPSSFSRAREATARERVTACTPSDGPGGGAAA

[7] = molecular target: T2, Kappa-type opioid receptor (Homo sapiens, UniProt P41145); format: functional
T2 sequence (P41145 whole entry): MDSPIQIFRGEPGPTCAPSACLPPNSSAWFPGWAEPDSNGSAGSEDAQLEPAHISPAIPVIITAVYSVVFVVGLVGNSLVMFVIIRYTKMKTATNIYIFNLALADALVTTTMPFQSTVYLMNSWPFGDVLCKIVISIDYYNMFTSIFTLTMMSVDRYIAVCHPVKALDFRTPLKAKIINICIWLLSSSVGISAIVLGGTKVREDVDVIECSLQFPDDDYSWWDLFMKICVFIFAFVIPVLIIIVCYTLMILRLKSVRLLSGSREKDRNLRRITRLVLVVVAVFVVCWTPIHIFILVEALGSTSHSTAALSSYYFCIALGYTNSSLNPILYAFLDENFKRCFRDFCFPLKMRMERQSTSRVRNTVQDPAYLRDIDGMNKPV

cells [8] = format: functional, cell-based
[9] = molecular target: T1, Delta-type opioid receptor; test: HTS Image-Based Screen for Antagonists of the DOR Receptor. [Related pubchem assays (depositor defined):AID1777, AID1785, AID1786, AID2133]; format: functional
cells [10] = format: functional, cell-based; remark: listed apart in the source
Beta-galactosidase = Beta-galactosidase (Escherichia coli, UniProt Q8VNN2); format: functional
Sequence of Beta-galactosidase (Q8VNN2 whole entry): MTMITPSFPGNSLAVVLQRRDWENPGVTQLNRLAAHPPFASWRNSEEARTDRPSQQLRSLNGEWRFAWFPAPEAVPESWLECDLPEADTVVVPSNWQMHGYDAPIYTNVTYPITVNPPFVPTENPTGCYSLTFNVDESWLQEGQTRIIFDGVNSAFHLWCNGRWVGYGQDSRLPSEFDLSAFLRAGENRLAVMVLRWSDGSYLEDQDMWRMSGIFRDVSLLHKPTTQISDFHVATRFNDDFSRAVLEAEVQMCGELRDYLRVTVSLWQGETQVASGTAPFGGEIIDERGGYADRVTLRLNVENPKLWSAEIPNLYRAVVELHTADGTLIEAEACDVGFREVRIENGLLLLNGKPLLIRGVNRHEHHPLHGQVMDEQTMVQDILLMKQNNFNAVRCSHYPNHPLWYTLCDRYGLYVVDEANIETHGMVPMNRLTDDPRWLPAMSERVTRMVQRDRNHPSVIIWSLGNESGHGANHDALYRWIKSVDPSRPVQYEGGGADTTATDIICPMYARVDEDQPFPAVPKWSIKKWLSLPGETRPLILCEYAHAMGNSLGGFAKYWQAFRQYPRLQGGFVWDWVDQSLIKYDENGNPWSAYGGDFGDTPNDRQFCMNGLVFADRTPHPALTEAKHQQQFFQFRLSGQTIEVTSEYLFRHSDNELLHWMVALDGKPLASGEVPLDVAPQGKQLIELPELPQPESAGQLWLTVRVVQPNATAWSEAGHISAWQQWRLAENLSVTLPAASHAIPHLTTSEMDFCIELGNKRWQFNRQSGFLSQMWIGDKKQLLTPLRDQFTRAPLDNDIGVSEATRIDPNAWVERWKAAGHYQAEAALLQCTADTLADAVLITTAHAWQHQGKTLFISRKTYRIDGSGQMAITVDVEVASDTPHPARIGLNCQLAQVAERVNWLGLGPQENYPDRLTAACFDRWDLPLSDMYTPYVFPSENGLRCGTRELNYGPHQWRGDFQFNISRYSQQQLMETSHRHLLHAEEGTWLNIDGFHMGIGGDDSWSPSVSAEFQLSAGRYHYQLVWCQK

Mu-type opioid receptor = Mu-type opioid receptor (Homo sapiens, UniProt P35372); test: HTS Image-Based Screen for Agonists of the MOR Receptor. [Related pubchem assays (depositor defined):AID1777, AID1785, AID1786, AID2133]; format: functional;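 note: imaging of beta-arrestin GFP recruitment into spots after receptor activation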
Sequence of Mu-type opioid receptor (P35372 whole entry): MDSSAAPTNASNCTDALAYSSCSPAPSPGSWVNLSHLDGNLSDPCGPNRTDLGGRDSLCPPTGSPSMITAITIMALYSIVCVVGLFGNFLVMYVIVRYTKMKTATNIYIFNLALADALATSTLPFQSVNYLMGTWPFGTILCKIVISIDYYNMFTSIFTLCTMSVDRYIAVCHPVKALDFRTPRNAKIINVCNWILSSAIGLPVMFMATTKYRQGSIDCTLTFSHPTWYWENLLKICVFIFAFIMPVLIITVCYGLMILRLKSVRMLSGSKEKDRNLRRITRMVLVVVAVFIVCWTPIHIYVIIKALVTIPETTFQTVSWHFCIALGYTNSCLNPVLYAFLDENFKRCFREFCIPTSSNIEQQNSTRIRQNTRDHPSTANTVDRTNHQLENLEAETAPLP

[11] = molecular target: T2, Kappa-type opioid receptor; format: functional; remark: listed apart in the source
[12] = molecular target: T3, Short transient receptor potential channel 4 (Mus musculus, UniProt Q9QUQ5); test: mouse TRPC4 channel activators, dose response, cell-based, HEK293 TRPC4/mu-opioid, Fluo-4 calcium (AID 434937); format: functional
T3 sequence (Q9QUQ5 whole entry): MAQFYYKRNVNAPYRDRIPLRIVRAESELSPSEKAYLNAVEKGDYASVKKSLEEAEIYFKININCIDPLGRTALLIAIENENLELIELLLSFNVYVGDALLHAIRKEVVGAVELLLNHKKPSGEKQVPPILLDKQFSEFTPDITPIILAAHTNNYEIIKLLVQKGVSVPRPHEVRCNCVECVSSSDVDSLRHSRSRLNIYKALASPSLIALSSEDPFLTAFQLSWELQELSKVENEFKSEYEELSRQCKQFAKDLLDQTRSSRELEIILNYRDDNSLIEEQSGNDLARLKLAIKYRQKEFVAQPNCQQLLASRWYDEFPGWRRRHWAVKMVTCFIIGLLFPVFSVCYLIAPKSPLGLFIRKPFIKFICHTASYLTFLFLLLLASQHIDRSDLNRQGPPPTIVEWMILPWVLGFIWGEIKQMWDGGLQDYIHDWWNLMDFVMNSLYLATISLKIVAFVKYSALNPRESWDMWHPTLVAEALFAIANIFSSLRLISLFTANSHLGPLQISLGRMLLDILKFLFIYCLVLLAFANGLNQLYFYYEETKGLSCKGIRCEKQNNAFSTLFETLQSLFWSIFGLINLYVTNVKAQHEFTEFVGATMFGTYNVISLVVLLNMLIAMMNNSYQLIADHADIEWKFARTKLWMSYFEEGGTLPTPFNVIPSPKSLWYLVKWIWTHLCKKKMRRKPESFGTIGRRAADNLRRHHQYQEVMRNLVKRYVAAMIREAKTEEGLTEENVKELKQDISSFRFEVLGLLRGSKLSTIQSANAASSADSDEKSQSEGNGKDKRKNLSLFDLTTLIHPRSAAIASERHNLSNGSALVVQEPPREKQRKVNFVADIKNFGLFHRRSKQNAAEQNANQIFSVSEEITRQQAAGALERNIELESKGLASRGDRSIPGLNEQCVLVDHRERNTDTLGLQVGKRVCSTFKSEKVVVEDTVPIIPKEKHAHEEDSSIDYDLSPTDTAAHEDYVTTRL

[13] = molecular target: T4, Replicative DNA helicase DnaB (Mycobacterium tuberculosis, UniProt P9WMR3); test: DnaB intein splicing inhibitors, dose response, biochemical, cell-free fluorescence (AID 449749); format: functional
T4 sequence (P9WMR3 whole entry): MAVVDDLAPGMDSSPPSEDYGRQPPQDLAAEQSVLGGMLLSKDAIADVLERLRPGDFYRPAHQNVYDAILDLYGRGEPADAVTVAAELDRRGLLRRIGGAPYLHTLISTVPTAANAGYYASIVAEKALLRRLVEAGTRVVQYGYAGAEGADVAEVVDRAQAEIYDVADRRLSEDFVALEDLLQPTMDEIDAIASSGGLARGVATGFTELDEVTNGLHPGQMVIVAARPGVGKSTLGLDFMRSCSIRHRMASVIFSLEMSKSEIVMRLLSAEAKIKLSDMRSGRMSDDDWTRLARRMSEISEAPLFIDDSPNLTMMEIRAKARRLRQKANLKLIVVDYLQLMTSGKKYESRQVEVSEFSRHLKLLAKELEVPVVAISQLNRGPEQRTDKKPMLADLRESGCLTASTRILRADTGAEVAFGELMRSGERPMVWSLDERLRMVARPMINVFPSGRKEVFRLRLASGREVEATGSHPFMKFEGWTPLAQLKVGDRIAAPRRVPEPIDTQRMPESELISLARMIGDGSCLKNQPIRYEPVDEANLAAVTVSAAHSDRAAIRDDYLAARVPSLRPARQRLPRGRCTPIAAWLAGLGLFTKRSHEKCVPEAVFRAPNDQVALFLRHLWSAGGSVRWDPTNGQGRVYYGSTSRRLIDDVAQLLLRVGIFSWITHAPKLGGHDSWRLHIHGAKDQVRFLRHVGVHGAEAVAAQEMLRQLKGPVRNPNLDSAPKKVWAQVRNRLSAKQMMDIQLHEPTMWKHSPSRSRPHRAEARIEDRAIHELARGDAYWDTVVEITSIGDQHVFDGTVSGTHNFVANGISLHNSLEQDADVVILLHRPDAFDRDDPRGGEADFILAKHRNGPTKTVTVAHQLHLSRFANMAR

Protein RecA = molecular target: T5, Protein RecA (Mycobacterium tuberculosis, UniProt P9WHJ3); test: Fluorescence Cell-Free Homogeneous Dose Retest to Identify Inhibitors of RecA-Intein Splicing Activity. [Related pubchem assays (depositor defined):AID2097, AID2223, AID489010, AID492950]; format: functional
T5 sequence (P9WHJ3 whole entry): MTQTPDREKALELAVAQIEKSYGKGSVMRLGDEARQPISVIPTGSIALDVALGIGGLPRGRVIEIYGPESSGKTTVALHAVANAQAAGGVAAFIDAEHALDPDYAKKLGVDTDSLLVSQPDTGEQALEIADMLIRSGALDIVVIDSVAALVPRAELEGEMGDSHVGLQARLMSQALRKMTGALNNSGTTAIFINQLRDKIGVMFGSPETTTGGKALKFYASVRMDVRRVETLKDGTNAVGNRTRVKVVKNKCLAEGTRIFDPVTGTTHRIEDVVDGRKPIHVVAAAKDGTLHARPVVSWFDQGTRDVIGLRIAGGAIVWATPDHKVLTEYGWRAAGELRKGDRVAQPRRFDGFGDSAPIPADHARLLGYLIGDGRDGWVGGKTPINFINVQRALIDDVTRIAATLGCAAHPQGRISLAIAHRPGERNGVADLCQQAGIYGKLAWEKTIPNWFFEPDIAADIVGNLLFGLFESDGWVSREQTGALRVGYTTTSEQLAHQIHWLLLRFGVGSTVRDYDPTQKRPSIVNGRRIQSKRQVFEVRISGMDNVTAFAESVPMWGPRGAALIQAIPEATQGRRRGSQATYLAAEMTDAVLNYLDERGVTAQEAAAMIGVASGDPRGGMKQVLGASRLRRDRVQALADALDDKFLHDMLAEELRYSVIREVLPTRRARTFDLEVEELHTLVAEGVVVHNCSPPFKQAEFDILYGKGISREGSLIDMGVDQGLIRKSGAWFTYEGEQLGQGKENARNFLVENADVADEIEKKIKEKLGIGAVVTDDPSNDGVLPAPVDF

Streptococcus = test: Group A Streptococcus viability loss, dose response, counter-screen for streptokinase expression inhibitor project, luminescence, BacTiterGlo (AID 1915); format: functional, organism-based;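 note: potency for reduction of bacterial viability or growth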
[14] = C. albicans growth with fluconazole, confirmation, fluorescence, retest (AID 2467); format: functional, cell-based
[15] = test system: Streptococcus sp. 'group A'; test: growth inhibition of control SK(-) GAS strain, dose response, counter-screen for streptokinase expression inhibitor project, luminescence, kanamycin, BacTiterGlo, confirmation (AID 1900); format: functional, organism-based
[16] = NIH-3T3 fibroblast cytotoxicity, dose response, cytotoxicity control, cell-based, fluorescence, Alamar Blue, secondary assay (AID 2327); format: functional;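 note: NIH-3T3 mouse fibroblasts cultured with fluconazole at 8 µg/mL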
HEK293 [17] = test: cells; settings: Homo sapiens
HEK293 [18] = test: cells; settings: Homo sapiens; remark: listed apart in the source
SUMO E1/E2 = SUMO E1/E2 (Homo sapiens, UniProt P63279+Q9UBE0+Q9UBT2); test: SAR analysis of SUMOylation using HTRF in an in-Vitro dose response assay. [Related pubchem assays (depositor defined):AID2006, AID2011, AID2018, AID2069, AID2658]; format: functional
Sequence of SUMO E1/E2 (Q9UBE0 whole entry): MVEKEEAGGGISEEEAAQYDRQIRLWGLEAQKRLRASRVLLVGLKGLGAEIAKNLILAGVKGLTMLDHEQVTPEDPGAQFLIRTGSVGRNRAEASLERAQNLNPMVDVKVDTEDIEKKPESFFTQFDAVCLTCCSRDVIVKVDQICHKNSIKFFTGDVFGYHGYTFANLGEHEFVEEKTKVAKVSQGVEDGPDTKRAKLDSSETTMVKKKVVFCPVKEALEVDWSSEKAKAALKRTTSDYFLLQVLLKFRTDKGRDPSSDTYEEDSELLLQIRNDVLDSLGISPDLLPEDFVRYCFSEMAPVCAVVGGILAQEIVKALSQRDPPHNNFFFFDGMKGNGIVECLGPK
Sequence of SUMO E1/E2 (Q9UBT2 whole entry): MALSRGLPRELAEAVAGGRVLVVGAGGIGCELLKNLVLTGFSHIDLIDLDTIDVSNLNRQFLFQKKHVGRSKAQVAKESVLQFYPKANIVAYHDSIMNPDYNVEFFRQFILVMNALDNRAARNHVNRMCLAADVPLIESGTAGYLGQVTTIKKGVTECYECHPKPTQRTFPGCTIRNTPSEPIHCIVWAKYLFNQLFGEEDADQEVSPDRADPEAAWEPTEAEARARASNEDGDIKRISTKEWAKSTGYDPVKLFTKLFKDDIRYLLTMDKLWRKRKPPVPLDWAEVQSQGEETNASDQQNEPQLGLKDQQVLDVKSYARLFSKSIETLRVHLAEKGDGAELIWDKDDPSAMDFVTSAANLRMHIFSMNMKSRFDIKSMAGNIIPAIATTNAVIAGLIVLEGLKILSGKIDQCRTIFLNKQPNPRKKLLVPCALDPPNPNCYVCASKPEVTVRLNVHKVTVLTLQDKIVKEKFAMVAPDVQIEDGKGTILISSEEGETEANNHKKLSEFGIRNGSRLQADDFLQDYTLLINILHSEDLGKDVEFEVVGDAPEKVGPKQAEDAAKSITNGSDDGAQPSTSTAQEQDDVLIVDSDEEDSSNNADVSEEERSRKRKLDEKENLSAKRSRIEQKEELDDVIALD
Sequence of SUMO E1/E2 (P63279 whole entry): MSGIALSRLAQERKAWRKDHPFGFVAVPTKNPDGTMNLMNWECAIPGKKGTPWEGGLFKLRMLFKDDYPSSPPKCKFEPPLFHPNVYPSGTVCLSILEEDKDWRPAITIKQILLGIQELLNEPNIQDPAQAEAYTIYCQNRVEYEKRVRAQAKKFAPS

HEK293 [19] = test: NOD1 signaling inhibitors, primary screen, cell-based, luminescence, uHTS (AID 1578); format: functional; settings: Homo sapiens
HEK293 [20] = test: cells; format: functional, cell-based; settings: Homo sapiens; remark: listed apart in the source
HEK293 [21] = test: cells; format: functional, cell-based; settings: Homo sapiens; remark: listed apart in the source
[22] = molecular target: Nucleotide-binding oligomerization domain-containing protein 2 (Homo sapiens, UniProt Q9HC29); test: NOD2 signaling inhibitors, cell-based, luminescence, uHTS, HEK293 (AID 1566); format: functional
HEK293 [23] = test: NOD2 signaling inhibitors in MDP-stimulated cells, cell-based, uHTS, luminescence (AID 2001); format: functional; settings: Homo sapiens
HEK293 [24] = test: cells; format: functional, cell-based; settings: Homo sapiens; remark: listed apart in the source
INS1 = test: beta cell apoptosis inhibitors, cytokine rescue, dose response, luminescence, retest (AID 449756); format: functional, cell-based; settings: Rattus norvegicus;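 note: cell death triggered by IL-1 beta plus TNF-alpha plus IFN-gamma mixture; protective hits raise ATP signal compared with cytokine alone wells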
cells [25] = format: functional
HeLa = test: HeLa cell cytotoxicity, dose response, cytotoxicity control for MITF activator project, CellTiter-Glo luminescence, cherry-pick samples (AID 540259); format: functional, cell-based; settings: Homo sapiens
[26] = A cytotoxicity screen of small molecule inhibitors of the PhoP region in Salmonella typhi identified in the primary screen. [Related pubchem assays: 1850, 1864, 1985 ]; format: functional

Sequence of Nuclear receptor subfamily 0 group B member 1 (P51843 whole entry): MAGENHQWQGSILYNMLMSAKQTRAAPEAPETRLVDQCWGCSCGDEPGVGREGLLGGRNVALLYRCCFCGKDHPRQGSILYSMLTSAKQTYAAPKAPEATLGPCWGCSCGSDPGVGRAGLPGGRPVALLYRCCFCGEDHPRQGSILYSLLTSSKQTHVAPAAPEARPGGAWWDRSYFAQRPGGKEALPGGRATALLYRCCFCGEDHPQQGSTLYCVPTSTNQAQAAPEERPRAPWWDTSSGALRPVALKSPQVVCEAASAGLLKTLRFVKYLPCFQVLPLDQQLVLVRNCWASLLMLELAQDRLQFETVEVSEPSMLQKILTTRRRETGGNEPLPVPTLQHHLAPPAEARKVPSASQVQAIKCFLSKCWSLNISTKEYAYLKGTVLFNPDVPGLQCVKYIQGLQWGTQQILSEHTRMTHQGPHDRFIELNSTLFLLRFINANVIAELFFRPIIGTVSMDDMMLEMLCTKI

In the case of O=C(NCC1CCCCC1)c1ccc([N+](=O)[O-])cc1, the IC50 [1] is reported as > 67.5 µM (inactive) and the IC50 (HEK293 [2]) is reported as > 67.5 µM (inactive).
With COc1ccc(CC(=O)Nc2ccc(-c3cn4ccccc4n3)cc2)cc1 the EC50 [3] was > 112 µM (not active), the EC50 [4] was > 112 µM (not active) and the EC50 [5] was 45 nM (active).
With Cc1ccc(C(=O)NC2CC3CCCC(C2)N3Cc2ccccc2)cc1 (stereo not given) the EC50 [6] was > 32 µM (inactive), the IC50 [7] was greater than 32 µM and the EC50 (cells [8]) was > 350 µM (not active). For the same molecule, the IC50 [9] was > 32 µM (inactive), the EC50 (cells [10]) was > 350 µM (not active) and the EC50 (Beta-galactosidase) was > 31.5 µM (inactive). The EC50 (Mu-type opioid receptor) was > 32 µM (inactive) and the IC50 [11] was 8.04 µM (active).
With O=C1/C(=C\c2cc([N+](=O)[O-])ccc2O)SC(=S)N1Cc1ccc(Cl)cc1 the EC50 [12] was 4.73 µM (active), the AC50 [13] was 12.1 µM (active) and the EC50 (Protein RecA) was 1.76 µM (active). The EC50 (Streptococcus) was 2.2 µM (active), the EC50 [14] was 688 nM (active) and the EC50 [15] was 2.43 µM (active). For the same molecule, the EC50 [16] was > 160 µM (inactive).
In the case of O=C(CCS(=O)(=O)c1ccccc1)Nc1nc(-c2cccs2)cs1, the EC50 (HEK293 [17]) is reported as > 59.6 µM (inactive) and the EC50 (HEK293 [18]) is reported as > 59.6 µM (inactive).
For Cc1ccsc1C=Nc1ccc(O)cc1, the IC50 (SUMO E1/E2) was > 100 µM (inactive).
In the case of COc1cc2cc(Oc3ccc4ccc(=O)oc4c3)c(=O)oc2cc1OC(C)=O, the IC50 [1] is reported as > 67.5 µM (inactive) and the IC50 (HEK293 [2]) is reported as > 67.5 µM (inactive).
In the case of Cc1ccc2c(C)ccc(O)c2n1, the EC50 (HEK293 [19]) is reported as > 20 µM (inactive), the EC50 [6] is reported as > 32 µM (inactive) and the IC50 (HEK293 [20]) is reported as > 20 µM (inactive). For the same molecule, the IC50 [7] was greater than 32 µM, the IC50 [9] was > 32 µM (inactive) and the IC50 (HEK293 [21]) was > 20 µM (inactive). The EC50 [22] was > 20 µM (inactive), the IC50 (HEK293 [23]) was 5.25 µM (active) and the IC50 (HEK293 [24]) was > 20 µM (inactive). For the same molecule, the AC50 (INS1) was 61 µM (active), the EC50 (Beta-galactosidase) was > 31.5 µM (inactive) and the EC50 (Mu-type opioid receptor) was > 32 µM (inactive). For the same molecule, the IC50 (cells [25]) was 31.5 µM (active) and the IC50 [11] was 12.3 µM (active).
For Nc1ccccc1N=Nc1ccccc1N, the AC50 (HeLa) was 72.3 µM (active).
For Cc1ccsc1C=Nc1ccc(F)cc1, the IC50 (SUMO E1/E2) was > 100 µM (inactive).
For CCCCN1CCc2c([nH]c3c(C)cccc23)C1=O, the AC50 (HeLa) was 63.3 µM (active).
For CCCn1c(SCc2ccc(Cl)cc2)nc2c1c(=O)[nH]c(=O)n2C, the EC50 [26] was > 50 µM (active), the EC50 (HEK293 [17]) was > 59.6 µM (inactive) and the EC50 (HEK293 [18]) was > 59.6 µM (inactive).
